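Assay format: 96-well plates, 48-hour exposure. TGI is the concentration that stops growth completely.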 Where a SMILES comes first, the peptide text is derived from it. [ ]: non-standard residue; d: D form. The star is where a group is joined. Bn2Val = CC(C)[C@@H](C(=O)*)N(Cc1ccccc1)Cc1ccccc1; NH(4-F-benzyl) = Fc1ccc(CN*)cc1; NMeV = CN[C@H](C(=O)O)C(C)C; dNMeA = CN[C@H](C)C(=O)O
Key:
Assay in all cases: growth of human tumour cells (NCI), 48 h
786-0 renal = system: 786-0 renal
A498 renal = system: A498 renal
A549 NSCLC = system: A549 NSCLC
ACHN renal = system: ACHN renal
BT-549 breast = system: BT-549 breast
CAKI-1 renal = system: CAKI-1 renal
CCRF-CEM leukemia = system: CCRF-CEM leukemia
COLO 205 colon = system: COLO 205 colon
DU-145 prostate = system: DU-145 prostate
EKVX NSCLC = system: EKVX NSCLC
HCC-2998 colon = system: HCC-2998 colon
HCT-116 colon = system: HCT-116 colon
HCT-15 colon = system: HCT-15 colon
HL-60(TB) leukemia = system: HL-60(TB) leukemia
HOP-62 NSCLC = system: HOP-62 NSCLC
HOP-92 NSCLC = system: HOP-92 NSCLC
HS 578T breast = system: HS 578T breast
HT29 colon = system: HT29 colon
IGROV1 ovarian = system: IGROV1 ovarian
K-562 leukemia = system: K-562 leukemia
KM12 colon = system: KM12 colon
LOX IMVI melanoma = system: LOX IMVI melanoma
M14 melanoma = system: M14 melanoma
MALME-3M melanoma = system: MALME-3M melanoma
MCF7 breast = system: MCF7 breast
MDA-MB-231 breast = system: MDA-MB-231 breast
MDA-MB-435 = system: MDA-MB-435
MDA-N = system: MDA-N
MOLT-4 leukemia = system: MOLT-4 leukemia
NCI-H226 lung = system: NCI-H226 lung
NCI-H23 lung = system: NCI-H23 lung
NCI-H460 lung = system: NCI-H460 lung
NCI-H522 lung = system: NCI-H522 lung
NCI/ADR-RES ovarian = system: NCI/ADR-RES ovarian
OVCAR-3 ovarian = system: OVCAR-3 ovarian
OVCAR-4 ovarian = system: OVCAR-4 ovarian
OVCAR-5 ovarian = system: OVCAR-5 ovarian
OVCAR-8 ovarian = system: OVCAR-8 ovarian
PC-3 prostate = system: PC-3 prostate
RPMI-8226 leukemia = system: RPMI-8226 leukemia
RXF 393 renal = system: RXF 393 renal
SF-268 CNS = system: SF-268 CNS
SF-295 CNS = system: SF-295 CNS
SF-539 CNS = system: SF-539 CNS
SK-MEL-2 melanoma = system: SK-MEL-2 melanoma
SK-MEL-28 melanoma = system: SK-MEL-28 melanoma
SK-MEL-5 melanoma = system: SK-MEL-5 melanoma
SK-OV-3 ovarian = system: SK-OV-3 ovarian
SN12C renal = system: SN12C renal
SNB-19 CNS = system: SNB-19 CNS
SNB-75 CNS = system: SNB-75 CNS
SR leukemia = system: SR leukemia
SW-620 colon = system: SW-620 colon
T-47D breast = system: T-47D breast
TK-10 renal = system: TK-10 renal
U251 CNS = system: U251 CNS
UACC-257 melanoma = system: UACC-257 melanoma
UACC-62 melanoma = system: UACC-62 melanoma
UO-31 renal = system: UO-31 renal

CC(C)[C@H](NC(=O)[C@H](C(C)C)N(Cc1ccccc1)Cc1ccccc1)C(=O)N(C)[C@H](C(=O)N1CCC[C@H]1C(=O)N(C)[C@H](C)C(=O)NCc1ccc(F)cc1)C(C)C (Bn2Val-V[NMeV]P[dNMeA]-{NH(4-F-benzyl)})
TGI (786-0 renal): 36.8 µM | TGI (A498 renal): 6.71 µM | TGI (A549 NSCLC): > 25.2 µM | TGI (ACHN renal): 20.6 µM | TGI (BT-549 breast): 19.1 µM | TGI (CAKI-1 renal): > 63.1 µM | TGI (CCRF-CEM leukemia): > 100 µM | TGI (COLO 205 colon): 3.28 µM | TGI (DU-145 prostate): > 100 µM | TGI (EKVX NSCLC): 18.4 µM | TGI (HCC-2998 colon): 12.8 µM | TGI (HCT-116 colon): 8.82 µM | TGI (HCT-15 colon): > 80.9 µM | TGI (HL-60(TB) leukemia): 5.52 µM | TGI (HOP-62 NSCLC): 39.4 µM | TGI (HOP-92 NSCLC): 10.3 µM | TGI (HS 578T breast): 24.7 µM | TGI (HT29 colon): 4.18 µM | TGI (IGROV1 ovarian): 9.7 µM | TGI (K-562 leukemia): > 100 µM | TGI (KM12 colon): > 100 µM | TGI (LOX IMVI melanoma): 3.52 µM | TGI (M14 melanoma): > 20.3 µM | TGI (MALME-3M melanoma): 9.23 µM | TGI (MCF7 breast): 7.32 µM | TGI (MDA-MB-231 breast): 11.2 µM | TGI (MDA-MB-435): > 31.9 µM | TGI (MDA-N): 27.9 µM | TGI (MOLT-4 leukemia): > 20.8 µM | TGI (NCI-H226 lung): 6.23 µM | TGI (NCI-H23 lung): 32.5 µM | TGI (NCI-H460 lung): > 38.7 µM | TGI (NCI-H522 lung): 7.61 µM | TGI (NCI/ADR-RES ovarian): > 100 µM | TGI (OVCAR-3 ovarian): 9.92 µM | TGI (OVCAR-4 ovarian): > 47.4 µM | TGI (OVCAR-5 ovarian): 15.4 µM | TGI (OVCAR-8 ovarian): > 51.5 µM | TGI (PC-3 prostate): > 25.6 µM | TGI (RPMI-8226 leukemia): > 100 µM | TGI (RXF 393 renal): 7.9 µM | TGI (SF-268 CNS): 10 µM | TGI (SF-295 CNS): 13.6 µM | TGI (SF-539 CNS): 7.99 µM | TGI (SK-MEL-2 melanoma): 4.03 µM | TGI (SK-MEL-28 melanoma): > 61.7 µM | TGI (SK-MEL-5 melanoma): 4.7 µM | TGI (SK-OV-3 ovarian): > 100 µM | TGI (SN12C renal): 8.76 µM | TGI (SNB-19 CNS): > 65.6 µM | TGI (SNB-75 CNS): > 37.5 µM | TGI (SR leukemia): 4.65 µM | TGI (SW-620 colon): > 100 µM | TGI (T-47D breast): > 83.9 µM | TGI (TK-10 renal): > 61.2 µM | TGI (U251 CNS): > 25.6 µM | TGI (UACC-257 melanoma): > 47.4 µM | TGI (UACC-62 melanoma): 9.66 µM | TGI (UO-31 renal): 6.42 µM

Reference: PubChem BioAssay (NCI)
